Assay results reported in ChEMBL document CHEMBL5726800, “Indazole and azaindazole Btk inhibitors” (2019).

Assays:
[1] = molecular target: T1, Tyrosine-protein kinase BTK (Homo sapiens, UniProt Q06187); assay: 25P Btk Enzyme Activity Assay: Btk enzymatic activity was determined with the LANCE (Lanthanide Chelate Excite) TR-FRET (lime-resolved fluorescence resonance energy transfer) assay. […] To each well of a black non-binding surface Corning 384-well microplate (Corning Catalog #3820), 5 nL of compound (2000 fold dilution in final assay volume of 10 μL) was dispensed, followed by the addition of 7.5 μL of 1× kinase buffer (50 mM Hepes 7.5, 10 mM MgCl2, 0.01% Brij-35, 1 mM EGTA, 0.05% BSA and 1 mM DTT) containing 26.67 pg/μL (266.7 pM) of 25P Btk enzyme (recombinant protein from baculovirus-transfected Sf9 cells: full-length Btk; MW=79378 Da). Following a 60 minute compound and enzyme incubation, each reaction was initiated by the addition of 2.5 μL 1× kinase buffer containing 8 μM biotinylated “A5” peptide (Biotin-EQEDEPEGDYFEWLE-NH2), and 100 μM ATP. The final reaction in each well of 10 consists of 200 pM 25P Btk, 2 μM biotin-A5-peptide, and 25 μM ATP. Phosphorylation reactions were allowed to proceed for 120 minutes. Reactions were immediately quenched by the addition of 20 uL of 1× quench buffer (15 mM EDTA, 25 mM Hepes 7.3, and 0.1% Triton X-100) containing detection reagents (0.626 nM of LANCE-Eu-W1024-anti-phosphoTyrosine antibody, PerkinElmer and 86.8 nM of Streptavidin-conjugated Dylight 650, Dyomics/ThermoFisher Scientific). […]
[2] = molecular target: T1, Tyrosine-protein kinase BTK; assay: 100P Btk Enzyme Activity Assay: Btk enzymatic activity was determined with the LANCE (Lanthanide Chelate Excite) TR-FRET (lime-resolved fluorescence resonance energy transfer) assay. […] To each well of a black non-binding surface Corning 384-well microplate (Corning Catalog #3820), 5 nL of compound (2000 fold dilution in final assay volume of 10 μL) was dispensed, followed by the addition of 7.5 μL of 1× kinase buffer (50 mM Hepes 7.5, 10 mM MgCl2, 0.01% Brij-35, 1 mM EGTA, 0.05% BSA & 1 mM DTT) containing 13.3 pg/μL (133.3 pM) of 100P Btk enzyme (recombinant protein from baculovirus-transfected Sf9 cells: full-length Btk; MW=79378 Da). Following a 60 minute compound and enzyme incubation, each reaction was initiated by the addition of 2.5 μL 1× kinase buffer containing 8 μM biotinylated “A5” peptide (Biotin-EQEDEPEGDYFEWLE-NH2) (SEQ.ID.NO.: 1) and 100 μM ATP. The final reaction in each well of 10 consists of 100 pM 100P Btk, 2 μM biotin-A5-peptide, and 25 μM ATP. Phosphorylation reactions were allowed to proceed for 45 minutes. Reactions were immediately quenched by the addition of 20 uL of 1× quench buffer (15 mM EDTA, 25 mM Hepes 7.3, and 0.1% Triton X-100) containing detection reagents (0.626 nM of LANCE-Eu-W1024-anti-phosphoTyrosine antibody, PerkinElmer and 86.8 nM of Streptavidin-conjugated Dylight 650, Dyomics/ThermoFisher Scientific). […]

T1 sequence (Q06187 whole entry): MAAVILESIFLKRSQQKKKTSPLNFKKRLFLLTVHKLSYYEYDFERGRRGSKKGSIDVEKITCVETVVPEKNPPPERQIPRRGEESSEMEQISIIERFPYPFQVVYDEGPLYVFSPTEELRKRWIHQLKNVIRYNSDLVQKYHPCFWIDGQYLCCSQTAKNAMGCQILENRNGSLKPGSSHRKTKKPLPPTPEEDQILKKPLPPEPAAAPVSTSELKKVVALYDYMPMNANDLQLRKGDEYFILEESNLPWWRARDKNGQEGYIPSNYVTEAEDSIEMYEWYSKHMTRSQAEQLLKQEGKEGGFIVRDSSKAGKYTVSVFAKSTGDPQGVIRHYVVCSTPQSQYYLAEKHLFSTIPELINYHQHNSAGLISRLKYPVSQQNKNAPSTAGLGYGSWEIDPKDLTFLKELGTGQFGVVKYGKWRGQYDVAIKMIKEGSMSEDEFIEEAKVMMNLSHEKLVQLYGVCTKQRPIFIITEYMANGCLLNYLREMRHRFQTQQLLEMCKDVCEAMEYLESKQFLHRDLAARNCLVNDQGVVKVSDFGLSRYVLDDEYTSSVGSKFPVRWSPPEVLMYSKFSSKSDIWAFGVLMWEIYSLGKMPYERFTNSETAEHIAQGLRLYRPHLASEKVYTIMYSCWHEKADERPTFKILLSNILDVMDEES

IC50 [1]: 23.8 nM
IC50 [2]: ≥ 1000 nM
Structure (SMILES): Cc1c(NC(=O)c2ccc(C(C)(C)C)cc2F)cccc1-c1cc(-c2cnn(C)c2)c2[nH]nc(N)c2c1
